IC50 and inhibition data for 43 molecules are collected here from patent US5342851A, “Substituted thiazole derivatives useful as platelet aggregation inhibitors” (McNeil-PPC, Inc., priority 1992, dated 1994).

Counter-ions that a name gives are not always drawn.

The first assay relates to activated platelets (125I-fibrinogen binding). Nature of the assay: Fibrinogen Binding (125I-fibrinogen binding to activated platelets). As to conditions: read-out: Binding (IC50, concentration of compound which provides 50% fibrinogen binding); thrombin-stimulated platelets; 0.15 μM 125I-fibrinogen. On the procedure:
The compounds of the invention as identified above are evaluated for platelet aggregation inhibition activity as indicated by the percentage of nonaggregated platelets which are available for binding in accordance with the following procedure.
Briefly, 40 mL of PRP (obtained from Biological Specialty Corp., Lansdale, Pa.) are centrifuged at 120×g to remove contaminating red cells. Aspirin (50 μM) is added and the PRP is incubated at 37° C. for 20 minutes. […] Platelets are concentrated by a 300×g centrifugation (10 minutes) and the pellet is resuspended in 4 mL. of Tyrode's buffer. The platelet suspension (4 mL) is gel-filtered through a Sepharose-2B column (50 mL bed volume). […] The binding reaction is performed in polystyrene tubes (final volume […]). Reagents are added in the following order: 80 mL of Tyrode's buffer, 50 mL of CaCl2 (final concentration (f.c.) […]) and 50 mL of thrombin (f.c. 0.1 unit/mL). The platelet suspension is then added and the mixture is allowed to incubate at room temperature for 2 minutes. Hirudin (50 mL, f.c. 0.5 unit/mL) is immediately added to prevent the catalytic activity of thrombin. […] The mixture is incubated for 10 minutes at room temperature. To terminate the binding reaction the platelets are sedimented (10,000×g for 3 minutes) through silicone oil (3:1 hi-phenol 550/methyl silicone 200, W. F. Nye, Inc., New Bedford, Mass.), in an Eppendorf centrifuge.
The amount of platelet radioactivity measured in the presence of nonlabeled fibrinogen (4 mg/mL) is considered the nonspecific binding. All samples are repeated in triplicate.
Positive percentages of fibrinogen binding indicates higher activity for inhibiting platelet aggregation since only non-aggregated or free platelets are available for fibrinogen binding.
With `NCCCCNC(=O)c1cnn(-c2nc(-c3cccc(C(F)(F)F)c3)cs2)c1C(F)(F)F` [Example 62], the IC50 was determined as 8.3 µM.

For `CCCCNCCCNC(=O)c1ccc(-c2csc(-c3ccc(Cl)cc3)n2)cc1` [Example 224], the IC50 was found to be 3.3 µM.

`CCCCNCCCNC(=O)c1cnn(-c2nc(-c3cccc(C(F)(F)F)c3)cs2)c1C(F)(F)F` [Example 113]: the IC50 came out at 10 µM.

`O=C(NCCCN1CCCCC1)c1cnn(-c2nc(-c3cccc(C(F)(F)F)c3)cs2)c1C(F)(F)F` [Example 89, 2-[4-[3-(N-Piperidino)propylcarbamoyl]-5-(trifluoromethyl)pyrazol-1-yl]-4-(3-trifluoromethylphenyl)thiazole]: the IC50 was found to be 10 µM.

Consider `Cc1ccc(-c2csc(-n3ncc(C(=O)NCCCN)c3C(F)(F)F)n2)cc1` [Example 123], for which the IC50 amounted to 17 µM.

As for `O=C(NCCCNC1CCCCC1)c1ccc(-c2csc(-c3ccc(Cl)cc3)n2)cc1` [Example 213], the IC50 stood at 9.2 µM.

In the case of `O=C(NCCCN1CCCC1)c1cnn(-c2nc(-c3cccc(C(F)(F)F)c3)cs2)c1C(F)(F)F` [Example 90], the IC50 turned out to be 14 µM.

On to `CN(C)CCCNC(=O)c1ccc(-c2csc(-c3ccc(C(C)(C)C)cc3)n2)cc1` [Example 156], for which the IC50 amounted to 12 µM.

As to `CN(C)CCCNC(=O)c1cnn(-c2nc(-c3ccc([N+](=O)[O-])cc3)cs2)c1C(F)(F)F` [Example 36], the IC50 worked out at 50 µM.

In the case of `CCN(CC)CCNC(=O)c1cnn(-c2nc(-c3cccc(C(F)(F)F)c3)cs2)c1C(F)(F)F` [Example 34], the IC50 came out at 6 µM.

Regarding `Cn1c(C(=O)NCCCNC2CCCCC2)ccc1-c1nc(-c2cccc(C(F)(F)F)c2)cs1` [Example 236, 2-[2-(4-Cyclohexylaminopropylcarbamoyl)-1-methyl-1H-pyrrol-5-yl]-4(3-trifluoromethylphenyl)thiazole], the IC50 was 13.5 µM.

A further assay concerns platelets (gel-filtered platelet rich plasma). Briefly: Platelet Aggregation Inhibition Activity (agonist thrombin or ADP, light transmission). The format is cell-based. Conditions: Homo sapiens, @ 20 μM, thrombin or ADP agonist, read-out: Aggregation (percentage increase in light transmission).
Description: The percentage of platelet aggregation is calculated as an increase in light transmission of drug treated platelet concentrate versus control treated platelet concentrate. Blood is obtained from drug free, normal donors into tubes containing 0.13M sodium citrate (two sources are routinely used: platelet concentrate obtained from Biological Specialty Corp., Lansdale, Pa. or whole blood obtained from donors). Platelet rich plasma (PRP) is collected by centrifugation of the concentrate or whole blood at 130×g for 15 minutes at 25° C. The PRP (5 mL) is gel filtered through Sepharose 2B (bed volume 50 mL), and the platelet count is adjusted to 2×10^7 platelets per sample. The following constituents are added to a siliconized cuvette: 250 μL of the concentrated platelet filtrate, 100 μL of Tyrode's buffer (0.14M NaCl, 0.0027M KCl, 0.012M NaHCO3, 0.76 mM Na2 HPO4, 0.0055M glucose and 2 mg/mL BSA pH 7.4), 50 μL of 2 mM calcium and test drug (50 mL).
Aggregation is monitored in a dual channel Chrono-log Aggregometer for three minutes following the addition of agonist (thrombin 50 μL of 1 unit/mL, or ADP 50 μL of 100 μM). The final assay volume is 500 μL. The reaction takes place at 37° C. The peak aggregation response is calculated as the increase in light transmission units over a three minute period. The difference of the increase in light transmission between control and drug treated platelets is then expressed as a percent of the nondrug treated controls. […] A percentage increase in light transmission indicates platelet aggregation inhibition activity for the tested compound.
For the molecule `CC(C)N(CCCCNC(=O)c1ccc(-c2csc(-c3ccc(C(F)(F)F)cc3)n2)cc1)C(C)C` [Example 189], the inhibition at 20 µM was determined as 86%.

As for `CCN(CC)CCNC(=O)c1ccc(-c2csc(-c3ccc(C(C)(C)C)cc3)n2)cc1` [Example 181], the inhibition at 20 µM is 85%.

With `COc1ccc(-c2nc(-c3ccc(C(=O)NCCCN(C)C)cc3)cs2)cc1` [Example 187], the inhibition at 20 µM worked out at 89%.

With `CCCCNCCCNC(=O)c1ccc(-c2csc(-c3ccc(C(F)(F)F)cc3)n2)cc1` [Example 218], the inhibition at 20 µM was 90%.

The assay is the same for the next values; noted with them: Homo sapiens, at 50 μM, thrombin or ADP agonist, read-out: Aggregation (percentage increase in light transmission).
Regarding `Cn1c(C(=O)NCCCN)ccc1-c1nc(-c2ccccc2)c(C(=O)O)s1` [Example 237, 2-[2-(4-Aminopropylcarbamoyl)-1-methyl-1H-pyrrol-5-yl]-4-phenyl-1,3-thiazole-5-carboxylic acid monohydrochloride monohydrate], the inhibition at 50 µM came to 68%.

The assay is the same for the next values; noted with them: read-out: Aggregation (IC50, concentration at which the increase in light transmission equals 50%), thrombin or ADP agonist, 37° C., three minutes.
`NCCCCNC(=O)c1cnn(-c2nc(-c3cccc(C(F)(F)F)c3)cs2)c1C(F)(F)F` [Example 62]: the IC50 is 4.6 µM.

`CCCCNCCCNC(=O)c1ccc(-c2csc(-c3ccc(Cl)cc3)n2)cc1` [Example 224]: the IC50 was 6.1 µM.

With `CCCCNCCCNC(=O)c1cnn(-c2nc(-c3cccc(C(F)(F)F)c3)cs2)c1C(F)(F)F` [Example 113], the IC50 came out at 3.1 µM.

For the molecule `Cc1ccc(-c2csc(-n3ncc(C(=O)NCCCN4CCCCC4)c3C(F)(F)F)n2)cc1` [Example 92], the IC50 stood at 10 µM.

For the molecule `O=C(NCCCN1CCCCC1)c1cnn(-c2nc(-c3cccc(C(F)(F)F)c3)cs2)c1C(F)(F)F` [Example 89, 2-[4-[3-(N-Piperidino)propylcarbamoyl]-5-(trifluoromethyl)pyrazol-1-yl]-4-(3-trifluoromethylphenyl)thiazole], the IC50 is 13 µM.

Turning to `O=C(NCCCNC1CCCCC1)c1cnn(-c2nc(-c3cccc(Cl)c3)cs2)c1C(F)(F)F` [Example 107], the IC50 was 5 µM.

For `Cc1ccc(-c2csc(-n3ncc(C(=O)NCCCN)c3C(F)(F)F)n2)cc1` [Example 123], the IC50 is 17 µM.

With `O=C(NCCCNC1CCCCC1)c1ccc(-c2csc(-c3ccc(Cl)cc3)n2)cc1` [Example 213], the IC50 came out at 10 µM.

With `NCCCOCc1cnn(-c2nc(-c3cccc(C(F)(F)F)c3)cs2)c1C(F)(F)F` [Example 138, 2-[4-[3-Aminopropoxymethyl]-5-(trifluoromethyl)pyrazol-1-yl]-4-(3-trifluoromethylphenyl)thiazole Hydrochloride], the IC50 was determined as 2.1 µM.

Consider `O=C(NCCCN1CCCC1)c1cnn(-c2nc(-c3cccc(C(F)(F)F)c3)cs2)c1C(F)(F)F` [Example 90], for which the IC50 came out at 15 µM.

In the case of `CN(C)CCCNC(=O)c1ccc(-c2csc(-c3ccc(C(C)(C)C)cc3)n2)cc1` [Example 156], the IC50 was 14.2 µM.

As to `NCCCCCNC(=O)c1cnn(-c2nc(-c3cccc(C(F)(F)F)c3)cs2)c1C(F)(F)F` [Example 61], the IC50 turned out to be 11.5 µM.

In the case of `CCN(CC)CCNC(=O)c1ccc(-c2csc(-c3ccc(Cl)cc3)n2)cc1` [Example 177], the IC50 turned out to be 12.8 µM.

In the case of `O=C(NCCCN1CCCCC1)c1cnn(-c2nc(-c3ccccc3)cs2)c1C(F)(F)F` [Example 94], the IC50 turned out to be 40 µM.

With `CCN(CC)CCCNC(=O)c1cnn(-c2nc(-c3ccc(OC)cc3)cs2)c1C(F)(F)F` [Example 41], the IC50 is 30 µM.

Turning to `O=C(NCCCN1CCCCC1)c1cnn(-c2nc(-c3cccc(Cl)c3)cs2)c1C(F)(F)F` [Example 106], the IC50 came out at 30 µM.

`CC(C)NCCCNC(=O)c1cnn(-c2nc(-c3cccc(C(F)(F)F)c3)cs2)c1C(F)(F)F` [Example 112]: the IC50 is 5 µM.

Consider `O=C(NCCCN1CCCCCC1)c1cnn(-c2nc(-c3cccc(C(F)(F)F)c3)cs2)c1C(F)(F)F` [Example 109], for which the IC50 came out at 6 µM.

With `CCN(CC)CCCNC(=O)c1cnn(-c2nc(-c3cc(OC)c(OC)c(OC)c3)cs2)c1C(F)(F)F` [Example 47], the IC50 came to 5.6 µM.

Turning to `CCN(CC)CCNC(=O)c1cnn(-c2nc(-c3ccc([N+](=O)[O-])cc3)cs2)c1C(F)(F)F` [Example 35], the IC50 was 75 µM.

Regarding `CCN(CC)CCCCNC(=O)c1cnn(-c2nc(-c3cccc(C(F)(F)F)c3)cs2)c1C(F)(F)F` [Example 52], the IC50 was found to be 6 µM.

For `CCN(CC)CCCNC(=O)c1ccc(-c2csc(COc3ccc(Cl)cc3)n2)cc1` [Example 206], the IC50 came out at 5.1 µM.

As to `Cc1ccc(-c2csc(-n3ncc(C(=O)NCCCNC4CCCCC4)c3C(F)(F)F)n2)cc1` [Example 96], the IC50 is 3.5 µM.

Turning to `Cc1ccc(-c2csc(-n3ncc(C(=O)NCCCN4CCCC4)c3C(F)(F)F)n2)cc1` [Example 93], the IC50 came out at 30 µM.

`Cc1cccc(-c2csc(-n3ncc(C(=O)NCCCN4CCCC4)c3C(F)(F)F)n2)c1` [Example 99]: the IC50 worked out at 30 µM.

With `CN(C)C=NCCCNC(=O)c1cnn(-c2nc(-c3cccc(Cl)c3)cs2)c1C(F)(F)F` [Example 132, 2-[4-(3-(N,N-Dimethylformamidinyl)propylcarbamoyl]5-(trifluoromethyl)pyrazol-1-yl]-4-(3-chlorophenyl)thiazole], the IC50 is 7 µM.

Take `CCN(CC)CCCNC(=O)c1cnn(-c2nc(-c3ccc(C(F)(F)F)cc3)cs2)c1C(F)(F)F` [Example 56]: the IC50 came to 4 µM.

Take `O=C(NCCCN1CCCCC1)c1cnn(-c2nc(-c3ccc(Cl)c(Cl)c3)cs2)c1C(F)(F)F` [Example 97]: the IC50 is 10 µM.

For `O=C(NCCCN1CCCCC1)c1cnn(-c2nc(-c3ccccc3C(F)(F)F)cs2)c1C(F)(F)F` [Example 100], the IC50 was 30 µM.

`O=C(NCCN1CCCCC1)c1cnn(-c2nc(-c3ccc(C(F)(F)F)cc3)cs2)c1C(F)(F)F` [Example 57]: the IC50 was 7 µM.

In the case of `O=C(NCCN1CCCC1)c1cnn(-c2nc(-c3cccc(C(F)(F)F)c3)cs2)c1C(F)(F)F` [Example 51], the IC50 was 30 µM.

Turning to `CC1CCCCN1CCCNC(=O)c1cnn(-c2nc(-c3cccc(C(F)(F)F)c3)cs2)c1C(F)(F)F` (stereo not drawn) [Example 54], the IC50 was 10 µM.

On to `Cc1cccc(-c2csc(-n3ncc(C(=O)NCCN4CCCCC4)c3C(F)(F)F)n2)c1` [Example 55], for which the IC50 was determined as 30 µM.

In the case of `O=C(NCCCNC1CCCCC1)c1cnn(-c2nc(-c3cccc(C(F)(F)F)c3)cs2)c1-c1ccccc1` [Example 108], the IC50 stood at 20 µM.

Take `O=C(NCCCN1CCCC1)c1cnn(-c2nc(-c3ccccc3C(F)(F)F)cs2)c1C(F)(F)F` [Example 101]: the IC50 was found to be 15 µM.
